The values that follow come from patent US20250019377A1 (JACOBIO PHARMACEUTICALS CO., LTD, priority 2021, published 2025).

The target in assay [1] is T1, K-Ras G12V (Homo sapiens, UniProt P01116, G12V). Briefly: SOS1 catalyzed nucleotide exchange assay (GDP form K-Ras), K-Ras G12V. The settings on record: read-out: K-Ras G12V GDP Biochemical Activity (IC50).
The subject of assay [2] is p-ERK in AGS cells (K-Ras G12D). Briefly: Phospho-ERK1/2(THR202/TYR204) HTRF assay, AGS. The assay is classed as cell-based. The following applies: Homo sapiens, 2 h, 2 hours incubation.
Assay [3] concerns p-ERK in SW620 cells (K-Ras G12V). Briefly: Phospho-ERK1/2(THR202/TYR204) HTRF assay, SW620. The assay is classed as cell-based. The following applies: Homo sapiens, SW-620, 2 h, 2 hours incubation.
The next assay concerns AGS cells (K-Ras G12D). Briefly: 2D cell growth inhibition assay, AGS. The assay is classed as cell-based. The following applies: Homo sapiens, 144 h, 6 days, absolute IC50.
The subject of assay [4] is AsPC-1 cells (K-Ras G12D). Briefly: 2D cell growth inhibition assay, AsPC-1. The assay is classed as cell-based. The following applies: Homo sapiens, ASPC1, 144 h, AsPC-1, K-Ras G12D, 6 days, absolute IC50.
Procedure: The cell growth inhibition activity of each of compounds was tested by performing cell growth inhibition assays on a variety of K-Ras mutant and K-Ras WT cell lines indicated in Table 25.
Each of cells in culture medium was plated in TC-treated 96-well plates at a density indicated in Table 25 and incubated in a cell incubator overnight. The next day, each of compounds was diluted in culture medium and added to the plates. After 6 days incubation in cell incubator, the cell viability was detected by CellTiter-Glo® Cell Viability Assay kit (Promega).
In a further assay the test system is SW620 cells (K-Ras G12V). Briefly: 2D cell growth inhibition assay, SW620. The assay is classed as cell-based. The settings on record: Homo sapiens, SW-620, 144 h, 6 days, absolute IC50.
For assay [5], the target named is T1, K-Ras G12V. Briefly: biochemical.

T1 sequence (P01116 1-169 isoform P01116-2 G12V): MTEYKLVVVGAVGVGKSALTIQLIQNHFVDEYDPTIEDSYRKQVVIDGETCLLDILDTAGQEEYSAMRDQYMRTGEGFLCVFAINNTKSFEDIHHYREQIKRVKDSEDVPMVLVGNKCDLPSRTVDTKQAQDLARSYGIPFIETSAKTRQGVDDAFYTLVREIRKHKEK

In the case of `Oc1cc(-c2ncc3c(N4CCCOCC4)nc(OC[C@@]45CCCN4C[C@H](F)C5)nc3c2F)c2c(F)c(F)ccc2c1` [Compound 40, 5,6-difluoro-4-(8-fluoro-2-(((2R,7aS)-2-fluorotetrahydro-1H-pyrrolizin-7a(5H)-yl)methoxy)-4-(1,4-oxazepan-4-yl)pyrido[4,3-d]pyrimidin-7-yl)naphthalen-2-ol trifluoroacetic acid], the IC50 at K-Ras G12V [1] was 1.94 nM; in assay [2], 5.68 nM; in assay [3], 14.1 nM; in the assay with AGS cells (K-Ras G12D), 9.24 nM; in assay [4], 91.3 nM; with SW620 cells (K-Ras G12V), 24.8 nM. The IC50 at K-Ras G12V [5] was 124 nM.
For the molecule `C#Cc1c(F)ccc2cc(O)cc(-c3ncc4c(N5[C@H]6COC[C@@H](C)[C@@H]5C6)nc(OC[C@@]56CCCN5C[C@H](F)C6)nc4c3F)c12` [Compound 111, 5-ethynyl-6-fluoro-4-(8-fluoro-2-(((2R,7aS)-2-fluorotetrahydro-1H-pyrrolizin-7a(5H)-yl)methoxy)-4-((1R,5S,6S)-5-methyl-3-oxa-7-azabicyclo[4.1.1]octan-7-yl)pyrido [4,3-d]pyrimidin-7-yl)naphthalen-2-ol], the IC50 on K-Ras G12V [1] is 4.21 nM; in assay [2], 17.4 nM; in assay [3], 84 nM; in the assay on AGS cells (K-Ras G12D) it was 86 nM; in assay [4], 390 nM; with SW620 cells (K-Ras G12V), 73.8 nM. The molecule also showed an IC50 against K-Ras G12V [5] above 1000 nM.
As for `C#Cc1c(F)ccc2cc(O)cc(-c3ncc4c(N5CC(F)(F)COCC5C)nc(OC[C@@]56CCCN5C[C@H](F)C6)nc4c3F)c12` (stereo partly drawn) [Compound 105, 4-(4-(6,6-difluoro-3-methyl-1,4-oxazepan-4-yl)-8-fluoro-2-(((2R,7aS)-2-fluorotetra-hydro-1H-pyrrolizin-7a(5H)-yl)methoxy)pyrido[4,3-d]pyrimidin-7-yl)-5-ethynyl-6-fluoronaphthalen-2-ol], the concentration for half-maximal inhibition (IC50) at K-Ras G12V [1] came to 2.08 nM; in assay [2] it was 23 nM; in assay [3] it was 34.8 nM; with AGS cells (K-Ras G12D), 53.6 nM; in assay [4], 326 nM; with SW620 cells (K-Ras G12V), 104 nM. The same molecule displayed a 50% inhibitory concentration (IC50) at K-Ras G12V [5] of 378 nM.
`C#Cc1c(F)ccc2cc(O)cc(-c3ncc4c(N5CCCO[C@@H]6C[C@@H]65)nc(OCC5(CN6CCOCC6)CC5)nc4c3F)c12` (single isomer, unassigned) [Compound 28B]: the IC50 on K-Ras G12V [1] stood at 2.31 nM; in assay [2] it was 1.33 nM; in assay [3], 3.36 nM; with AGS cells (K-Ras G12D), 2.23 nM; in assay [4], 18.2 nM; in the assay on SW620 cells (K-Ras G12V), 6.63 nM. The molecule also came in with a concentration for half-maximal inhibition (IC50) against K-Ras G12V [5] of 29.2 nM.
Turning to `C#Cc1c(F)ccc2cc(O)cc(-c3nc(O)c4c(N5CCCOCC5)nc(OC[C@@]56CCCN5C[C@H](F)C6)nc4c3F)c12` [Compound 123, 7-(8-ethynyl-7-fluoro-3-hydroxynaphthalen-1-yl)-8-fluoro-2-(((2R,7aS)-2-fluoro-tetrahydro-1H-pyrrolizin-7a(5H)-yl)methoxy)-4-(1,4-oxazepan-4-yl)pyrido[4,3-d] pyrimidin-5-ol], the IC50 at K-Ras G12V [1] was 2.49 nM; in assay [2], 517 nM; in assay [3], 803 nM; with AGS cells (K-Ras G12D) it was 8.51 nM; in assay [4] it was 2800 nM; in the assay with SW620 cells (K-Ras G12V), 525 nM. This molecule gave an IC50 against K-Ras G12V [5] of 156 nM.
For the molecule `C#Cc1c(F)ccc2cc(O)cc(-c3nc(OC(C)C)c4c(N5CCCOCC5)nc(OC[C@@]56CCCN5C[C@H](F)C6)nc4c3F)c12` [Compound 52, 5-ethynyl-6-fluoro-4-(8-fluoro-2-(((2R,7aS)-2-fluorotetrahydro-1H-pyrrolizin-7a(5H)-yl)methoxy)-5-isopropoxy-4-(1,4-oxazepan-4-yl)pyrido[4,3-d]pyrimidin-7-yl)naphthalen-2-ol trifluoroacetic acid], the concentration for half-maximal inhibition (IC50) at K-Ras G12V [1] turned out to be 1.88 nM; in assay [2], 9.66 nM; in assay [3], 2.43 nM; in the assay with AGS cells (K-Ras G12D), 8.11 nM; in assay [4], 40.4 nM; in the assay with SW620 cells (K-Ras G12V), 5.66 nM. For the same molecule, on K-Ras G12V [5], the IC50 turned out to be 16.6 nM.
Turning to `C#Cc1c(F)ccc2cc(O)cc(-c3nc(SC)c4c(N5CCCOCC5)nc(OC[C@@]56CCCN5C[C@H](F)C6)nc4c3F)c12` [Compound 47, 5-ethynyl-6-fluoro-4-(8-fluoro-2-(((2R,7aS)-2-fluorotetrahydro-1H-pyrrolizin-7a(5H)-yl)methoxy)-5-(methylthio)-4-(1,4-oxazepan-4-yl)pyrido[4,3-d]pyrimidin-7-yl)naphthalen-2-ol trifluoroacetic acid], the IC50 turned out to be 4.38 nM on K-Ras G12V [1]; 17.7 nM in assay [2]; 40.9 nM in assay [3]; 51.7 nM with AGS cells (K-Ras G12D); 106 nM in assay [4]; 41.6 nM in the assay with SW620 cells (K-Ras G12V). At K-Ras G12V [5], this molecule displayed an IC50 of 152 nM.
`C#Cc1c(F)ccc2cc(O)cc(-c3nc(C)c4c(N5CCCOCC5)nc(OC[C@@]56CCCN5C[C@H](F)C6)nc4c3F)c12` [Compound 121, 5-ethynyl-6-fluoro-4-(8-fluoro-2-(((2R,7aS)-2-fluorotetrahydro-1H-pyrrolizin-7a(5H)-yl)methoxy)-5-methyl-4-(1,4-oxazepan-4-yl)pyrido[4,3-d]pyrimidin-7-yl) naphthalen-2-ol]: the concentration for half-maximal inhibition (IC50) at K-Ras G12V [1] was 3.01 nM; in assay [2], 5.47 nM; in assay [3] it was 34.8 nM; with AGS cells (K-Ras G12D), 25.4 nM; in assay [4], 320 nM; in the assay on SW620 cells (K-Ras G12V) it was 91 nM. For the same molecule, on K-Ras G12V [5], the midpoint of inhibition, the IC50, lay at 140 nM.
Turning to `C#Cc1c(F)ccc2cc(O)cc(-c3nc(CO)c4c(N5CCCOCC5)nc(OC[C@@]56CCCN5C[C@H](F)C6)nc4c3F)c12` [Compound 36, 5-ethynyl-6-fluoro-4-(8-fluoro-2-(((2R,7aS)-2-fluorotetrahydro-1H-pyrrolizin-7a(5H)-yl)methoxy)-5-(hydroxymethyl)-4-(1,4-oxazepan-4-yl)pyrido[4,3-d]pyrimidin-7-yl)naphthalen-2-ol trifluoroacetic acid], the half-maximal inhibitory concentration (IC50) at K-Ras G12V [1] amounted to 7.96 nM; in assay [2], 12.4 nM; in assay [3] it was 48.8 nM; in the assay with AGS cells (K-Ras G12D), 37.3 nM; in assay [4], 734 nM; in the assay with SW620 cells (K-Ras G12V) it was 112 nM. The molecule further showed an IC50 against K-Ras G12V [5] of 267 nM.
Consider `C#Cc1c(F)ccc2cc(O)cc(-c3nc(C(F)F)c4c(N5CCCOCC5)nc(OC[C@@]56CCCN5C[C@H](F)C6)nc4c3F)c12` [Compound 34, 4-(5-(difluoromethyl)-8-fluoro-2-(((2R,7aS)-2-fluorotetrahydro-1H-pyrrolizin-7a(5H)-yl)methoxy)-4-(1,4-oxazepan-4-yl)pyrido[4,3-d]pyrimidin-7-yl)-5-ethynyl-6-fluoronaphthalen-2-ol trifluoroacetic acid], for which the concentration for half-maximal inhibition (IC50) was 2.12 nM on K-Ras G12V [1]; 19.4 nM in assay [2]; 40 nM in assay [3]; 75.4 nM in the assay on AGS cells (K-Ras G12D); 323 nM in assay [4]; 205 nM in the assay on SW620 cells (K-Ras G12V). In addition, the IC50 against K-Ras G12V [5] was determined as 483 nM.
With `C#Cc1c(F)ccc2cc(O)cc(-c3ncc4c(N5CCCOC6CC65)nc(OC[C@@H]5CCCN5C)nc4c3F)c12` (stereo partly drawn) [Compound 113, 4-(4-(2-oxa-6-azabicyclo[5.1.0]octan-6-yl)-8-fluoro-2-(((S)-1-methylpyrrolidin-2-yl)methoxy)pyrido[4,3-d]pyrimidin-7-yl)-5-ethynyl-6-fluoronaphthalen-2-ol], the IC50 at K-Ras G12V [1] turned out to be 1.66 nM; in assay [2], 1.83 nM; in assay [3], 10.4 nM; in the assay with AGS cells (K-Ras G12D), 9.76 nM; in assay [4], 121 nM; in the assay with SW620 cells (K-Ras G12V) it was 22.4 nM. This molecule had an IC50 against K-Ras G12V [5] of 29 nM.
Consider `C#Cc1c(F)ccc2cc(O)cc(-c3ncc4c(N5CCCOCC5C)nc(OC[C@@]56CCCN5C[C@H](F)C6)nc4c3F)c12` (mixture of isomers) [Compound 16, 5-ethynyl-6-fluoro-4-(8-fluoro-2-(((2R,7aS)-2-fluorotetrahydro-1H-pyrrolizin-7a(5H)-yl)methoxy)-4-(3-methyl-1,4-oxazepan-4-yl)pyrido[4,3-d]pyrimidin-7-yl)naphthalen-2-ol trifluoroacetic acid], for which the concentration for half-maximal inhibition (IC50) at K-Ras G12V [1] was determined as 1.47 nM; in assay [2], 2.31 nM; in assay [3], 19.4 nM; in the assay with AGS cells (K-Ras G12D), 18.6 nM; in assay [4], 133 nM; in the assay with SW620 cells (K-Ras G12V), 39.5 nM. The midpoint of inhibition on K-Ras G12V [5], the IC50, lay at 35.7 nM.
`C#Cc1c(F)ccc2cc(O)cc(-c3nc(C4CC4)c4c(N5CCCOCC5)nc(OC[C@@]56CCCN5C[C@H](F)C6)nc4c3F)c12` [Compound 35, 4-(5-cyclopropyl-8-fluoro-2-(((2R,7aS)-2-fluorotetrahydro-1H-pyrrolizin-7a(5H)-yl)methoxy)-4-(1,4-oxazepan-4-yl)pyrido[4,3-d]pyrimidin-7-yl)-5-ethynyl-6-fluoronaphthalen-2-ol trifluoroacetic acid]: the IC50 at K-Ras G12V [1] was 5.81 nM; in assay [2] it was 1.42 nM; in assay [3], 11.9 nM; with AGS cells (K-Ras G12D), 5.63 nM; in assay [4], 88.5 nM; with SW620 cells (K-Ras G12V), 9.2 nM. Moreover, the half-maximal inhibitory concentration (IC50) against K-Ras G12V [5] was determined as 22.1 nM.
